In US9546157B2, “Asymmetric piperidinyl-substituted ureas as medicines” (Helsinn Healthcare SA, priority 2014, dated 2017):

Assays:
[1] = biological target: T1, GHSR1a (Homo sapiens, UniProt Q92847); assay: Calcium FLIPR assay, GHSR-1a antagonism (reduction of ghrelin response); type: cell-based; conditions: HEK293/GHSR1a cells, ghrelin 10 nM
T1 construct: expressed in transfected cells; host or cells: HEK293
Method: (§1) The intracellular calcium assay was carried out in a 384-well format FLIPR™ (Molecular Device) HEK293/GHSR1a cell line. Cells were seeded 24 hr prior to the experiments at an optimal density per well. Preincubation with selected calcium dye lasted for 30-60 min at room temperature or 37° C. Test compounds, dissolved in DMSO, were added at the appropriate time and incubated for 15 min followed by the addition of ghrelin with FlexStation or FLIPR. Relative fluorescence was monitored by the FLIPR™ Molecular Device. EC50 and IC50 values were estimated from dose-response data using GraphPad Prism software. To check for GHSR-1a agonism the compound was added at t=20 sec. and the calcium response was followed for 2 minutes. To check for GHSR-1a antagonism the compound and Ghrelin (10 nM) were added to the cells at t=20 sec. and the calcium response was measured for 2 minutes. The potency of the antagonist was calculated by its ability to reduce the ghrelin response. Dose-response curves were made for relevant antagonists.

[2] = biological target: T1, GHSR1a; assay: Calcium FLIPR assay, GHSR-1a agonism; type: cell-based; design: Emax: unit not given here; conditions: HEK293/GHSR1a cells
Method: as §1

T1 sequence (Q92847 whole entry): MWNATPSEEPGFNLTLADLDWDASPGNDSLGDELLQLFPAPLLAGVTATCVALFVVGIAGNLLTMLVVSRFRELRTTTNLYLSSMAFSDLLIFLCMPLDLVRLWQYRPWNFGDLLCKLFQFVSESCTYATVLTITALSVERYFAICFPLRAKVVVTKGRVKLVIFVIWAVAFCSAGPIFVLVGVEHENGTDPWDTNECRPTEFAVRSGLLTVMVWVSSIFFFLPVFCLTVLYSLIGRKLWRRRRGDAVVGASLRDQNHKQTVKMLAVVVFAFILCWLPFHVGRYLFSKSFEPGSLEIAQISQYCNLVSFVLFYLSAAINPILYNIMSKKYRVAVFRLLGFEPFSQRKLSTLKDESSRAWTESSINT

IC50 [1] | EC50 [2] | Emax [2] | Structure (SMILES)
4 nM | 11 nM | 2300 | CC(NC(=O)N(C)C1CCN(C)CC1)c1ccc(-c2ccc(C=O)s2)c(Cl)c1Cl (stereo not shown) [Compound H0651, 3-(1-(2,3-dichloro-4-(5-formylthiophen-2-yl)phenyl)ethyl)-1-methyl-1-(1-methylpiperidin-4-yl)urea]
695 nM | > 30000 nM | – | CN1CCC(N(C)C(=O)NC(C)(C#N)c2ccc(-c3cncnc3)c(Cl)c2Cl)CC1 (stereo not shown) [Compound H0703, 3-(1-cyano-1-(2,3-dichloro-4-(pyrimidin-5-yl)phenyl)ethyl)-1-methyl-1-(1-methylpiperidin-4-yl)urea]
171 nM | > 30000 nM | – | CC(NC(=O)N(C)C1CCN(C)CC1)c1ccc(-c2cncc(CC#N)c2)c(Cl)c1Cl (stereo not shown) [Compound H0699, 3-(1-(2,3-dichloro-4-(5-(cyanomethyl)pyridin-3-yl)phenyl)ethyl)-1-methyl-1-(1-methylpiperidin-4-yl)urea]
1370 nM | > 30000 nM | – | COCc1cncc(-c2ccc(C(C)NC(=O)N(C)C3CCN(C)CC3)c(Cl)c2Cl)c1 (stereo not shown) [Compound H0708, 3-(1-(2,3-dichloro-4-(5-(methoxymethyl)pyridin-3-yl)phenyl)ethyl)-1-methyl-1-(1-methylpiperidin-4-yl)urea]
780 nM | > 30000 nM | – | CC(NC(=O)N(C)C1CCN(C)CC1)c1ccc(-c2cncc(N3CCCC3)c2)c(Cl)c1Cl (stereo not shown) [Compound H0719, 3-(1-(2,3-dichloro-4-(5-(pyrrolidin-1-yl)pyridin-3-yl)phenyl)ethyl)-1-methyl-1-(1-methylpiperidin-4-yl)urea]
3 nM | 10 nM | 4435 | CC(NC(=O)N(C)C1CCN(C)CC1)c1ccc(-c2csc(N)n2)c(Cl)c1Cl (stereo not shown) [Compound H0794, 3-(1-(4-(2-aminothiazol-4-yl)-2,3-dichlorophenyl)ethyl)-1-methyl-1-(1-methylpiperidin-4-yl)urea]
31 nM | 96 nM | 1833 | CC(NC(=O)N(C)C1CCN(C)CC1)c1ccc(-c2cc(F)cc(F)c2)c(Cl)c1Cl (stereo not shown) [Compound H0605, 3-(1-(2,3-dichloro-3′,5′-difluoro[1,1′-biphenyl]-4-yl)ethyl)-1-methyl-1-(1-methylpiperidin-4-yl)urea]
13 nM | 13 nM | 1729 | CC(NC(=O)N(O)C1CCN(C)CC1)c1ccc(-c2cnccn2)c(Cl)c1Cl (stereo not shown) [Compound H0756, 3-(1-(2,3-dichloro-4-(pyrazin-2-yl)phenyl)ethyl)-1-hydroxy-1-(1-methylpiperidin-4-yl)urea]
154 nM | > 30000 nM | – | CC(NC(=O)N(C)C1CCN(C)CC1)c1ccc(-c2cn[nH]c2)c(Cl)c1F (stereo not shown) [Compound H0571, 3-(1-(3-chloro-2-fluoro-4-(1H-pyrazol-4-yl)phenyl)ethyl)-1-methyl-1-(1-methylpiperidin-4-yl)urea]
64 nM | 67 nM | 1411 | CC(NC(=O)N(C)C1CCN(C)CC1)c1ccc(-c2cnn(C3CC3)c2)c(Cl)c1Cl (stereo not shown) [Compound H0842, 3-(1-(2,3-dichloro-4-(1-cyclopropyl-1H-pyrazol-4-yl)phenyl)ethyl)-1-methyl-1-(1-methylpiperidin-4-yl)urea]
676 nM | > 30000 nM | – | CON(C(=O)NC(C#N)c1ccc(-c2cncnc2)c(Cl)c1Cl)C1CCN(C)CC1 (stereo not shown) [Compound H0709]
9 nM | > 30000 nM | – | CN1CCC(N(C)C(=O)NC(c2ccc(-c3cnccn3)c(Cl)c2Cl)C(F)(F)F)C1 (stereo not shown) [Compound H0871, 3-(1-(2,3-dichloro-4-(pyrazin-2-yl)phenyl)-2,2,2-trifluoroethyl)-1-methyl-1-(1-methylpyrrolidin-3-yl)urea]
674 nM | 90 nM | 1494 | Cc1cc(-c2ccc(C(C)NC(=O)N(C)C3CCN(C)CC3)c(Cl)c2Cl)ncn1 (stereo not shown) [Compound H0808, 3-(1-(2,3-dichloro-4-(6-methylpyrimidin-4-yl)phenyl)ethyl)-1-methyl-1-(1-methylpiperidin-4-yl)urea]
28 nM | 43 nM | – | CC(NC(=O)N(C)C1CCN(C)CC1)c1ccc(-c2nnco2)c(Cl)c1Cl (stereo not shown) [Compound H0595, 3-(1-(2,3-dichloro-4-(1,3,4-oxadiazol-2-yl)phenyl)ethyl)-1-methyl-1-(1-methylpiperidin-4-yl)urea]
> 30000 nM | > 30000 nM | – | CC(NC(=O)N(C)C1CCC(F)(F)CC1)c1ccc(-c2cncnc2)c(Cl)c1Cl (stereo not shown) [Compound H0587, 3-(1-(2,3-dichloro-4-(pyrimidin-5-yl)phenyl)ethyl)-1-(4,4-difluorocyclohexyl)-1-methylurea]
180 nM | > 30000 nM | – | CC(NC(=O)N(C)C1CCN(C)CC1)c1ccc(-c2cn[nH]c2)c2ccccc12 (stereo not shown) [Compound H0576, 3-(1-(4-(1H-pyrazol-4-yl)naphthalen-1-yl)ethyl)-1-methyl-1-(1-methylpiperidin-4-yl)urea]
189 nM | > 30000 nM | – | C[C@H](NC(=O)N(C)C1CCN(C)C1)c1ccc(-c2cnccn2)c(Cl)c1Cl (single isomer, unassigned) [Compound H0861]
2200 nM | > 30000 nM | – | CC[C@@H](NC(=O)N(C)C1CCN(C)CC1)c1ccc(-c2cnccn2)c(Cl)c1Cl (single isomer, unassigned) [Compound H0859]
33 nM | 45 nM | 3536 | C#Cc1ccc(C(CC2CC2)NC(=O)N(OCC)C2CCN(C)CC2)c(Cl)c1Cl (stereo not shown) [Compound H0744, 3-(2-cyclopropyl-1-(2,3-dichloro-4-ethynylphenyl)ethyl)-1-ethoxy-1-(1-methylpiperidin-4-yl)urea]
35 nM | 51 nM | 1910 | Cc1nccnc1-c1ccc(C(C)NC(=O)N(C)[C@@H]2CCN(C)CC2(C)C)c(Cl)c1Cl (stereo partly drawn) [Compound H0843, 3-(1-(2,3-dichloro-4-(3-methylpyrazin-2-yl)phenyl)ethyl)-1-methyl-1-((R)-1,3,3-trimethylpiperidin-4-yl)urea]
4 nM | 9 nM | 2150 | CC(NC(=O)N(C)C1CCN(C)CC1)c1ccc(-c2ccccn2)c(Cl)c1Cl (stereo not shown) [Compound H0650, 3-(1-(2,3-dichloro-4-(pyridin-2-yl)phenyl)ethyl)-1-methyl-1-(1-methylpiperidin-4-yl)urea]
88 nM | 20 nM | 1230 | CC(NC(=O)N(C)C1CCN(C)CC1)c1ccc(-c2cncc(C#N)n2)c(Cl)c1Cl (stereo not shown) [Compound H0788, 3-(1-(2,3-dichloro-4-(6-cyanopyrazin-2-yl)phenyl)ethyl)-1-methyl-1-(1-methylpiperidin-4-yl)urea]
8 nM | > 30000 nM | – | CC(NC(=O)N(C)C1CCN(C)CC1)c1ccc(C#C[Si](C)(C)C)c(Cl)c1Cl (stereo not shown) [Compound H0602, 3-(1-(2,3-dichloro-4-((trimethylsilyl)ethynyl)phenyl)ethyl)-1-methyl-1-(1-methylpiperidin-4-yl)urea]
34 nM | 4 nM | – | CC(NC(=O)N(C)C1CCN(C)CC1)c1ccc(-c2ccc[nH]2)c(Cl)c1Cl (stereo not shown) [Compound H0535, 3-(1-(2,3-dichloro-4-(1H-pyrrol-2-yl)phenyl)ethyl)-1-methyl-1-(1-methylpiperidin-4-yl)urea]
162 nM | > 30000 nM | – | CC(NC(=O)N(C)C1CCN(C)CC1)c1ccc(-c2cnc(N)nc2)c(Cl)c1Cl (stereo not shown) [Compound H0798, 3-(1-(4-(2-aminopyrimidin-5-yl)-2,3-dichlorophenyl)ethyl)-1-methyl-1-(1-methylpiperidin-4-yl)urea]
3400 nM | > 30000 nM | – | CC(NC(=O)N(C)C1CCN(C)CC1)c1ccc(-c2sccc2C(N)=O)c(Cl)c1Cl (stereo not shown) [Compound H0774, 2-(2,3-dichloro-4-(1-(3-methyl-3-(1-methylpiperidin-4-yl)ureido)ethyl)phenyl)thiophene-3-carboxamide]
300 nM | > 30000 nM | – | CN1CCC(N(C)C(=O)NC(CO)c2ccc(-c3cnccn3)c(Cl)c2Cl)CC1 (stereo not shown) [Compound H0924, 3-(1-(2,3-dichloro-4-(pyrazin-2-yl)phenyl)-2-hydroxyethyl)-1-methyl-1-(1-methylpiperidin-4-yl)urea]
216 nM | > 30000 nM | – | CC(NC(=O)N(C)C1CCN(C)CC1)c1ccc(-c2cncc(-c3ccoc3)c2)c(Cl)c1Cl (stereo not shown) [Compound H0746, 3-(1-(2,3-dichloro-4-(5-(furan-3-yl)pyridin-3-yl)phenyl)ethyl)-1-methyl-1-(1-methylpiperidin-4-yl)urea]
22 nM | 83 nM | 2660 | CC(NC(=O)N(C)C1CCN(C)CC1)c1ccc(CCCO)c(Cl)c1Cl (stereo not shown) [Compound H0643, 3-(1-(2,3-dichloro-4-(3-hydroxypropyl)phenyl)ethyl)-1-methyl-1-(1-methylpiperidin-4-yl)urea]
396 nM | > 30000 nM | – | CC(NC(=O)N(C)C1CCN(C)CC1)c1ccc(-c2cncc(-c3cccs3)c2)c(Cl)c1Cl (stereo not shown) [Compound H0717, 3-(1-(2,3-dichloro-4-(5-(thiophen-2-yl)pyridin-3-yl)phenyl)ethyl)-1-methyl-1-(1-methylpiperidin-4-yl)urea]

Structure (SMILES) | IC50 [1] | EC50 [2] | Emax [2]
CC(NC(=O)N(C)C1CCN(C)CC1)c1ccc(C#N)c(Cl)c1Cl (stereo not shown) [Compound H0523, 3-(1-(2,3-dichloro-4-cyanophenyl)ethyl)-1-methyl-1-(1-methylpiperidin-4-yl)urea] | 668 nM | > 30000 nM | –
